In one data set the test system is MDCKII cells. Briefly: Apparent permeability in MDCKII cells. The format is in vitro ADME. The settings on record: Papp, average of A to B and B to A, 1 μM test compound, t=3 hr.
The target in data set [1] is GR full length protein (glucocorticoid receptor) (Homo sapiens (Human), UniProt P04150). Briefly: PolarScreen Glucocorticoid Receptor Competitor Assay (GR binding). The settings on record: fluorescence polarisation competitor assay, 2-4 hours at room temperature; read-out: GR Bind IC50.
Protocol: The potency of binding to gucocorticoid receptor by small molecule compounds was measured with the PolarScreen™ Glucocorticoid Receptor Competitor Assay Kit, Red (Life Technology, Catalog #A15898) according to the procedure in the kit. In brief, after compounds were diluted and transferred into assay plates, the fluormone GS red and GR full length protein were subsequently added into the assay plates, along with the positive and negative controls. The samples were mixed on a shaker for 1 minute and then the plates were incubated at room temperature for 2-4 hours with minimal light exposure. The plates were read with an Envision and the relative fluorescent signals were calculated. The data were plotted in GraphPad Prism and the EC50 values were calculated with non-linear regression curve fit of the data in GraphPad Prism.
For the next data set, the system named is GILZ gene. Briefly: GILZ gene assay (qPCR, HUT78 / 786-O cells). The class given is cell-based. The settings on record: for pEC50: read-out: GILZ EC50.

pEC50, pIC50: −log10 of the molar value.

Sequence of GR full length protein (glucocorticoid receptor) (P04150 whole entry): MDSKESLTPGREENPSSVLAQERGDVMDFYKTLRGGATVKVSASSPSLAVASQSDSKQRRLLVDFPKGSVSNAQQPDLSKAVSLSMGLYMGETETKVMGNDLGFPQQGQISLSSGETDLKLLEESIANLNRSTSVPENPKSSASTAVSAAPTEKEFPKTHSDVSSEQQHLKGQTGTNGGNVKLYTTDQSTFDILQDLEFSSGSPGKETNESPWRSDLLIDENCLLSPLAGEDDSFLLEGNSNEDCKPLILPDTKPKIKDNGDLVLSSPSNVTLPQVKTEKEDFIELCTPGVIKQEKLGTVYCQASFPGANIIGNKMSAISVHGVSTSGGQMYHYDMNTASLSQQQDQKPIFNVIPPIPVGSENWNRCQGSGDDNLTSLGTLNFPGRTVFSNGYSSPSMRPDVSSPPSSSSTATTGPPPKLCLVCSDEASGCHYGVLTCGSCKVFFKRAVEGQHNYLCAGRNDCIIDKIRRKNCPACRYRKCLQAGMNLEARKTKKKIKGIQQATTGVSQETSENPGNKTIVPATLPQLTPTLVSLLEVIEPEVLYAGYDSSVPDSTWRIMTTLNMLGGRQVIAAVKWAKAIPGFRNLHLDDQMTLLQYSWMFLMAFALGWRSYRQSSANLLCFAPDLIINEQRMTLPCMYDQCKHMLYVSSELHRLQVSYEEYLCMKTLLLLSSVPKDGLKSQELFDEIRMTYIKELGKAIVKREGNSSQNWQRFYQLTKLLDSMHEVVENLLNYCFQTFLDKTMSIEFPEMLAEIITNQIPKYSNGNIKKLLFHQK
Protocol for GILZ gene: GILZ gene assays were conducted as follows. HUT78 cells were cultured in IMEM plus 20% heat inactivated FBS and cell density was maintained between 0.1 to 1.2 million/mL. 786-O cells were cultured in RPMI plus 10% heat inactivated FBS. Actively growing cells were harvested and resuspended in HBSS with 2% FBS at 1.1 million cells per mL then dispensed to 384-well V-bottom plates at 45 μL per well. Serially diluted ADC solution was added to the cell plate (5 μL per well) and mixed for 2 min. Cells were then cultured at 37° C., at 5% CO2 for a designated time before supernatant was removed. Cells were harvested in lysis buffer from the Cells-to-Ct kit (40 μL, Life Technologies, 4391851C) following the supplier's protocol and mixed for 10 min followed by addition of 5 μL per well of stop solution from the kit. cDNA was synthesized with a reverse transcription kit (Life Technologies, 4391852C) follow by qPCR using the TaqMan gene expression master mix (Life Technologies, 4369016) with GILZ gene assay (Life Technologies, Hs00608272_m1) and GAPDH assay (Hs2758991_g1) in a duplex format with 3-4 technical replicates.
Protocol for MDCKII cells: Determination of apparent permeability was as follows. MDCKII cells (kindly provided by the Netherlands Cancer Institute, under a licensing agreement) were seeded on to 96-well transwell culture plates (Millipore Corp, Billerica, Mass.) and used in experiments after five days in culture. […] Substrate solution (150 μL) was added to either the apical (A) or the basolateral (B) compartment of the culture plate, and buffer (150 μL; HBSS, 10 mM HEPES, pH 7.4) with 10 μM cyclosporine A was added to the compartment opposite to that containing the substrate. At t=3 hr, 50 μL samples were removed from both sides of monolayers dosed with test compound and placed in 96 well plates, 50 μL internal standard (1 μM labetolol) and 100 μL HBSS was added to the samples. Samples were analyzed by LC/MS/MS using an Applied Biosystems SCIEX API 5000 triple quadruple mass spectrometer (Concord, ON, Canada) with a TurboIonSpray ion source in the positive ion mode. A Thermo Scientific Transcend LX-2 system (Franklin, Mass.) was coupled to the API 5000 with a flow rate of 800 μL/min to direct sample into the mass spectrometer.
Papp was expressed as 10-6 cm/s.

In the case of `CCCC1O[C@@H]2C[C@H]3[C@@H]4CCC5=CC(=O)C=C[C@]5(C)[C@H]4[C@@H](O)C[C@]3(C)[C@]2(C(=O)CO)O1` (stereo partly shown) [Budesonide, reference compound], the “MDCK Permeability (cm × 10-6/sec)” value in the data set on MDCKII cells is on record as 31.6 cm × 10-6/sec.

Consider `CCC(=O)O[C@]1(C(=O)SCCCCCCCCCCP(=O)(O)O)[C@H](C)C[C@H]2[C@@H]3C[C@H](F)C4=CC(=O)C=C[C@]4(C)[C@@]3(F)[C@@H](O)C[C@@]21C` [Compound 3, (10-(((6S,8S,9R,10S,11S,13S,14S,16R,17R)-6,9-difluoro-11-hydroxy-10,13,16-trimethyl-3-oxo-17-(propionyloxy)-6,7,8,9,10,11,12,13,14,15,16,17-dodecahydro-3H-cyclopenta[a]phenanthrene-17-carbonyl)thio)decyl)phosphonic acid], for which the “MDCK Permeability (cm × 10-6/sec)” value in the data set on MDCKII cells is 1.04 cm × 10-6/sec. The same measure, in the same setting: then `CCC(=O)O[C@]1(C(=O)SCCCCP(=O)(O)O)[C@H](C)C[C@H]2[C@@H]3C[C@H](F)C4=CC(=O)C=C[C@]4(C)[C@@]3(F)[C@@H](O)C[C@@]21C` [Compound 4], with 1.72 cm × 10-6/sec; and `C[C@@H]1C[C@H]2[C@@H]3C[C@H](F)C4=CC(=O)C=C[C@]4(C)[C@@]3(F)[C@@H](O)C[C@]2(C)[C@@]1(O)C(=O)SCCCCP(=O)(O)O` [Compound 5], with 1.84 cm × 10-6/sec. For `CCC(=O)O[C@]1(C(=O)SCCCCCCP(=O)(O)O)[C@H](C)C[C@H]2[C@@H]3C[C@H](F)C4=CC(=O)C=C[C@]4(C)[C@@]3(F)[C@@H](O)C[C@@]21C` [Compound 7], the “MDCK Permeability (cm × 10-6/sec)” value in the data set on MDCKII cells turned out to be 2 cm × 10-6/sec. As to `C[C@@H]1C[C@H]2[C@@H]3C[C@H](F)C4=CC(=O)C=C[C@]4(C)[C@@]3(F)[C@@H](O)C[C@]2(C)[C@@]1(O)C(=O)SCCCCCCCCCCP(=O)(O)O` [Compound 8], in the data set with MDCKII cells, the “MDCK Permeability (cm × 10-6/sec)” value worked out at 2.8 cm × 10-6/sec. On to `C[C@@H]1C[C@H]2[C@@H]3C[C@H](F)C4=CC(=O)C=C[C@]4(C)[C@@]3(F)[C@@H](O)C[C@]2(C)[C@@]1(O)C(=O)SCCCCCCP(=O)(O)O` [Compound 10], for which the “MDCK Permeability (cm × 10-6/sec)” value with MDCKII cells came to 1.9 cm × 10-6/sec.

For `C[C@@H]1C[C@H]2[C@@H]3C[C@H](F)C4=CC(=O)C=C[C@]4(C)[C@@]3(F)[C@@H](O)C[C@]2(C)[C@@]1(OC(=O)CCCCCCCCP(=O)(O)O)C(=O)SCF` [Compound 18, (9-(((6S,8S,9R,10S,11S,13S,14S,16R,17R)-6,9-difluoro-17-(((fluoromethyl)thio)carbonyl)-11-hydroxy-10,13,16-trimethyl-3-oxo-6,7,8,9,10,11,12,13,14,15,16,17-dodecahydro-3H-cyclopenta[a]phenanthren-17-yl)oxy)-9-oxononyl)phosphonic acid], the “MDCK Permeability (cm × 10-6/sec)” value in the data set with MDCKII cells is less than 0.9 cm × 10-6/sec.

As to `C[C@@H]1C[C@H]2[C@@H]3C[C@H](F)C4=CC(=O)C=C[C@]4(C)[C@@]3(F)[C@@H](O)C[C@]2(C)[C@@]1(OC(=O)CCCCCP(=O)(O)O)C(=O)SCF` [Compound 19, (6-(((6S,8S,9R,10S,11S,13S,14S,16R,17R)-6,9-difluoro-17-(((fluoromethyl)thio)carbonyl)-11-hydroxy-10,13,16-trimethyl-3-oxo-6,7,8,9,10,11,12,13,14,15,16,17-dodecahydro-3H-cyclopenta[a]phenanthren-17-yl)oxy)-6-oxohexyl)phosphonic acid], in data set [1], the pIC50 was 9.85. Besides, in the data set on GILZ gene, the pEC50 is 5.89. Turning to `CCCC1O[C@@H]2C[C@H]3[C@@H]4CCC5=Cc6c(cnn6-c6cccc(OCCCCP(=O)(O)O)c6)C[C@]5(C)[C@H]4[C@@H](O)C[C@]3(C)[C@]2(C(=O)CO)O1` (stereo partly shown) [Compound 28], the “MDCK Permeability (cm × 10-6/sec)” value in the data set on MDCKII cells came to 1.6 cm × 10-6/sec. Turning to `CCCC1O[C@@H]2C[C@H]3[C@@H]4CCC5=Cc6c(cnn6-c6ccc(OCCCCP(=O)(O)O)cc6)C[C@]5(C)[C@H]4[C@@H](O)C[C@]3(C)[C@]2(C(=O)CO)O1` (stereo partly shown) [Compound 30], the “MDCK Permeability (cm × 10-6/sec)” value in the data set with MDCKII cells turned out to be 1.9 cm × 10-6/sec. Still for that read-out and setting: the value for `CCCC1O[C@@H]2C[C@H]3[C@@H]4CCC5=Cc6c(cnn6-c6ccc(OCCCCCCP(=O)(O)O)cc6)C[C@]5(C)[C@H]4[C@@H](O)C[C@]3(C)[C@]2(C(=O)CO)O1` (stereo partly shown) [Compound 31] was 4.1 cm × 10-6/sec; that for `CCC(=O)O[C@]1(C(=O)SCF)[C@H](C)C[C@H]2[C@@H]3C[C@H](F)C4=CC(=O)C=C[C@]4(C)[C@@]3(F)[C@@H](O)C[C@@]21C` [Fluticasone Propionate, reference compound] was 21.5 cm × 10-6/sec. As for “(6-(3-((3aR,4aS,4bS,11aR,11bS,12S,13aS,13bS)-12-hydroxy-13b-(2-hydroxyacetyl)-11a,13a-dimethyl-2-propyl-4,4a,5,6,11,11a,11b,12,13,13a-decahydro-[1,3]dioxolo[4″,5″:3′,4′]cyclopenta[1′,2′:5,6]naphtho[,2-f]indazol-8(3aH,4bH,13bH)-yl)phenoxy)hexyl)phosphonic acid [Compound 27]”, the “GILZ Max” value with GILZ gene (at 10 uM) is 80% (at. Moreover, in the data set with GILZ gene, the pEC50 was 5.56.

These data come from US11554172B2, “Phosphonate linkers and their use to facilitate cellular retention of compounds” (priority 2016, dated 2023).
